Measurements published in patent publication US10188770B2, “Dental implant having enhanced early stability and method for manufacturing same” (OSSTEMIMPLANT CO., LTD., priority 2014, dated 2019).

Columns and labels:
[1] = system: implant-bone interface; assay: Removal torque of coated implants just after coating and after 3-year storage; assay type: in vivo; set-up: Removal torque: unit not given here; conditions: for removal torque compared with other bisphosphonates and bare implant (in words): summary of Table 1, bisphosphonate-coated implants; for removal torque compared with other dental implants (in words): summary of Table 2, implants coated with both rhBMP-2 and bisphosphonate
Method: In order to confirm the long-time storage stabilities of implant, osseointegration at implant-bone interface were measured via removal torque.
Each dental implant was coated with various bisphosphonates as described example 1 and its removal torque was measured just after coating step and 3-year self-storage, respectively.
Similarly, osseointegration at implant-bone interface were measured via removal torque for dental implants wherein the osteoclast activity inhibitor coating film further comprises a bone growth factor (BMP-2) as shown in Table 2.

[2] = system: tibia of micropigs; conditions: implants coated with rhBMP-2 and alendronate vs implants coated only with rhBMP-2, after 16 days, FIG. 6
Method: (§1) In order to impart hydrophilicity to the implants which were subjected to the above processes, the titanium surface was hydrophilized by plasma treatment (RFGD, O2, etc.) for 1 minutes and light radiation (ultraviolet rays, ultraviolet-ozone, etc.) for 5 minutes. Then, a 10 ml solution of 40 μg Alendronate, 40 μg Zolendronate, 1 μg BMP-2, and 40 μg Alendronate+1 μg BMP-2 was uniformly applied to the surface, and the prepared implants, in which the solution was not dried, were used in the following Examples 2, 3 and 4.

[3] = system: mandible and tibia of micropigs; conditions: hydrophilized implants coated with alendronate vs uncoated implants, 0 to 6 weeks, FIGS. 3 and 4
Method: as §1

[4] = storage period 0 year, implants coated with 10 ml solution of 40 μg bisphosphonate
[5] = storage period 0 year, implants coated with 10 ml solution of 40 μg bisphosphonate and 1 μg rhBMP-2
[6] = storage period 3 year, implants coated with 10 ml solution of 40 μg bisphosphonate
[7] = storage period 3 year, implants coated with 10 ml solution of 40 μg bisphosphonate and 1 μg rhBMP-2

**Q.** How did the Removal torque [1, 4] turn out when `NCCCC(O)(P(=O)(O)O)P(=O)(O)O` [Alendronate] was run?
**A.** 100.2 ± 8.4

**Q.** And the Removal torque [1, 5]?
**A.** 130.1 ± 9.7

**Q.** What about the Removal torque [1, 6] of the same compound?
**A.** 99.4 ± 11.8

**Q.** What about the Removal torque [1, 7] of the same compound?
**A.** 129.8 ± 13.1

**Q.** What about the “removal torque compared with other bisphosphonates and bare implant (in words)” value [1] of the same compound?
**A.** higher removal torque

**Q.** And the “removal torque compared with other dental implants (in words)” value [1]?
**A.** higher removal torque value

**Q.** What about the “increase of removal torque compared to the negative control group” value [2] of the same compound?
**A.** about 23%

**Q.** And the “decrease in ISQ values compared to the negative control group” value [3]?
**A.** little decrease in ISQ values or the degree of the decrease was very lower

**Q.** Which Removal torque [1, 4] does the source give for `CCCCCN(C)CCC(O)(P(=O)(O)O)P(=O)(O)O` [Ibandronate] here?
**A.** 98.4 ± 12.1

**Q.** And the Removal torque [1, 5]?
**A.** 128.8 ± 13.4

**Q.** And the Removal torque [1, 6]?
**A.** 85.4 ± 12.5

**Q.** And the Removal torque [1, 7]?
**A.** 110.8 ± 13.4

**Q.** What does the source list for `NCCC(O)(P(=O)(O)O)P(=O)(O)O` [Pamindronate]?
**A.** Removal torque [1, 4]: 99.6 ± 7.9; Removal torque [1, 5]: 127.5 ± 12.2; Removal torque [1, 6]: 84.1 ± 11.4; Removal torque [1, 7]: 109.7 ± 12.2

**Q.** What does the source list for `O=P(O)(O)C(O)(Cc1cccnc1)P(=O)(O)O` [Resendronate]?
**A.** Removal torque [1, 4]: 103.5 ± 9.3; Removal torque [1, 5]: 128.1 ± 11.6; Removal torque [1, 6]: 83.2 ± 9.3

**Q.** What does the source list for `O=P(O)(O)C(O)(Cn1ccnc1)P(=O)(O)O` [Zolendronate]?
**A.** Removal torque [1, 4]: 104.4 ± 11.1; Removal torque [1, 5]: 134.4 ± 11.9; Removal torque [1, 6]: 103.8 ± 8.9; Removal torque [1, 7]: 132.5 ± 10.7; removal torque compared with other bisphosphonates and bare implant (in words) [1]: higher removal torque; removal torque compared with other dental implants (in words) [1]: higher removal torque value
